The NIST ThermoML archive (doi:10.1021/je501118w)
Where “and” joins values, the source holds several entries; their conditions need not be identical. Equal entries are not always repeated.

Conditions: Liquid, Vibrating tube method

CCCCCC[n+]1ccn(C)c1.O=S(=O)([N-]S(=O)(=O)C(F)(F)F)C(F)(F)F
Conditions | mass density
273.15 K, 101.33 kPa | 1395.63 kg/m3 and 1395.14 kg/m3 and 1395.28 kg/m3
278.15 K, 101.33 kPa | 1390.37 kg/m3 and 1390.93 kg/m3
283.15 K, 101.33 kPa | 1385.72 kg/m3 and 1385.89 kg/m3 and 1386.23 kg/m3
288.15 K, 101.33 kPa | 1381.16 kg/m3 and 1381.54 kg/m3
288.15 K, 14950 kPa | 1393.3 kg/m3
288.15 K, 20180 kPa | 1396.8 kg/m3
288.15 K, 25080 kPa | 1400 kg/m3
288.15 K, 30100 kPa | 1403.2 kg/m3
288.15 K, 40120 kPa | 1409.5 kg/m3
288.15 K, 49940 kPa | 1415.3 kg/m3
288.15 K, 75500 kPa | 1429.5 kg/m3
288.15 K, 124700 kPa | 1453.9 kg/m3
288.15 K, 174600 kPa | 1474.9 kg/m3
288.16 K, 100000 kPa | 1442.2 kg/m3
288.16 K, 150500 kPa | 1465 kg/m3
293.15 K, 101.33 kPa | 1376.86 kg/m3 [middle of 4 runs]
298.15 K, 101.33 kPa | 1372.17 kg/m3 [middle of 4 runs]
303.15 K, 101.33 kPa | 1367.48 kg/m3 and 1367.61 kg/m3
313.15 K, 101.33 kPa | 1358.37 kg/m3 and 1358.51 kg/m3 and 1358.44 kg/m3
323.15 K, 101.33 kPa | 1349.3 kg/m3 and 1349.43 kg/m3 and 1349.35 kg/m3
333.15 K, 101.33 kPa | 1340.33 kg/m3 and 1340.27 kg/m3 and 1340.4 kg/m3
343.15 K, 101.33 kPa | 1331.36 kg/m3 and 1331.29 kg/m3 and 1331.38 kg/m3
353.15 K, 101.33 kPa | 1322.46 kg/m3 and 1322.34 kg/m3 and 1322.43 kg/m3
363.15 K, 101.33 kPa | 1313.62 kg/m3 and 1313.44 kg/m3 and 1313.52 kg/m3

CCCC[n+]1ccn(C)c1.O=S(=O)([N-]S(=O)(=O)C(F)(F)F)C(F)(F)F
Conditions | mass density
273.15 K, 100 kPa | 1460.67 kg/m3
278.15 K, 100 kPa | 1455.84 kg/m3
283.15 K, 100 kPa | 1451.04 kg/m3
288.15 K, 100 kPa | 1446.23 kg/m3
288.15 K, 10320 kPa | 1453.8 kg/m3
288.15 K, 15130 kPa | 1457.1 kg/m3
288.15 K, 20090 kPa | 1460.4 kg/m3
288.15 K, 24820 kPa | 1463.6 kg/m3
288.15 K, 25120 kPa | 1463.3 kg/m3
288.15 K, 30620 kPa | 1467.3 kg/m3
288.15 K, 39770 kPa | 1473 kg/m3
288.15 K, 49640 kPa | 1478.8 kg/m3
288.15 K, 50970 kPa | 1479.2 kg/m3
288.15 K, 76000 kPa | 1493.8 kg/m3
288.15 K, 100500 kPa | 1506 kg/m3
288.15 K, 124500 kPa | 1517.8 kg/m3
288.15 K, 150400 kPa | 1528.9 kg/m3
288.15 K, 151000 kPa | 1529.4 kg/m3
288.15 K, 175100 kPa | 1539.3 kg/m3
288.15 K, 199900 kPa | 1548.8 kg/m3
288.16 K, 99600 kPa | 1506 kg/m3
293.15 K, 100 kPa | 1441.43 kg/m3 and 1441.42 kg/m3
298.15 K, 100 kPa | 1436.64 kg/m3 and 1436.6 kg/m3
298.15 K, 9760 kPa | 1444.2 kg/m3
298.15 K, 15200 kPa | 1448.1 kg/m3
298.15 K, 24770 kPa | 1454.6 kg/m3
298.15 K, 24930 kPa | 1454.4 kg/m3
298.15 K, 39560 kPa | 1464.3 kg/m3
298.15 K, 50280 kPa | 1470.6 kg/m3
298.15 K, 100700 kPa | 1498.7 kg/m3
298.15 K, 124500 kPa | 1510.5 kg/m3
298.15 K, 150300 kPa | 1522.1 kg/m3
298.15 K, 174400 kPa | 1532.5 kg/m3
298.15 K, 200400 kPa | 1543.2 kg/m3 and 1542.9 kg/m3
298.15 K, 249600 kPa | 1561.5 kg/m3
298.16 K, 20120 kPa | 1451.5 kg/m3
298.16 K, 30400 kPa | 1458.4 kg/m3
298.16 K, 50110 kPa | 1470.9 kg/m3
298.16 K, 75200 kPa | 1485.4 kg/m3
298.16 K, 100200 kPa | 1498.6 kg/m3
298.16 K, 150100 kPa | 1522.3 kg/m3
298.16 K, 225500 kPa | 1553 kg/m3
303.15 K, 100 kPa | 1431.86 kg/m3
313.15 K, 100 kPa | 1422.34 kg/m3
323.15 K, 100 kPa | 1412.87 kg/m3 and 1412.85 kg/m3
323.15 K, 15150 kPa | 1424.4 kg/m3
323.15 K, 24310 kPa | 1431.5 kg/m3
323.15 K, 24670 kPa | 1431.2 kg/m3
323.15 K, 30100 kPa | 1435.1 kg/m3
323.15 K, 39780 kPa | 1441.8 kg/m3
323.15 K, 49910 kPa | 1448.4 kg/m3
323.15 K, 50470 kPa | 1449.4 kg/m3
323.15 K, 75400 kPa | 1463.9 kg/m3
323.15 K, 99600 kPa | 1478.1 kg/m3
323.15 K, 100500 kPa | 1478 kg/m3
323.15 K, 124700 kPa | 1490.3 kg/m3
323.15 K, 149600 kPa | 1502.1 kg/m3 and 1502.8 kg/m3
323.15 K, 174600 kPa | 1513 kg/m3
323.15 K, 200000 kPa | 1524.7 kg/m3
323.15 K, 225000 kPa | 1533.7 kg/m3
323.15 K, 251500 kPa | 1543 kg/m3
323.16 K, 10250 kPa | 1420.7 kg/m3
323.16 K, 20180 kPa | 1428.1 kg/m3
323.16 K, 201000 kPa | 1524.3 kg/m3
333.15 K, 100 kPa | 1403.48 kg/m3
343.15 K, 100 kPa | 1394.15 kg/m3
348.15 K, 10050 kPa | 1397.8 kg/m3
348.15 K, 15200 kPa | 1402 kg/m3
348.15 K, 20220 kPa | 1405.9 kg/m3
348.15 K, 24790 kPa | 1410.4 kg/m3
348.15 K, 24830 kPa | 1409.3 kg/m3
348.15 K, 30300 kPa | 1413.4 kg/m3
348.15 K, 39980 kPa | 1420.5 kg/m3
348.15 K, 49890 kPa | 1427.3 kg/m3
348.15 K, 50730 kPa | 1429.7 kg/m3
348.15 K, 75400 kPa | 1443.5 kg/m3
348.15 K, 100300 kPa | 1460.9 kg/m3
348.15 K, 100500 kPa | 1458.5 kg/m3
348.15 K, 125100 kPa | 1471.9 kg/m3
348.15 K, 150000 kPa | 1484.2 kg/m3
348.15 K, 150500 kPa | 1487.2 kg/m3
348.15 K, 174700 kPa | 1495.6 kg/m3
348.15 K, 199200 kPa | 1509.2 kg/m3
348.15 K, 200600 kPa | 1506.6 kg/m3
348.15 K, 225700 kPa | 1517 kg/m3
348.15 K, 250700 kPa | 1526.9 kg/m3
353.15 K, 100 kPa | 1384.88 kg/m3
363.15 K, 100 kPa | 1375.67 kg/m3
